# Assay results from patent US6605627B2, “Modulators of peroxisome proliferator activated receptor-gamma, and methods for the use thereof” (The Salk Insitute for Biological Studies, priority 1999, dated 2003).
# Molecular target: T1, GAL4-PPARγ fusion protein (Mus musculus, UniProt P37238)
# T1 construct: expressed in transfected cells; host or cells: CV-1 cells
# T1 sequence (P37238 163-475 isoform P37238-2): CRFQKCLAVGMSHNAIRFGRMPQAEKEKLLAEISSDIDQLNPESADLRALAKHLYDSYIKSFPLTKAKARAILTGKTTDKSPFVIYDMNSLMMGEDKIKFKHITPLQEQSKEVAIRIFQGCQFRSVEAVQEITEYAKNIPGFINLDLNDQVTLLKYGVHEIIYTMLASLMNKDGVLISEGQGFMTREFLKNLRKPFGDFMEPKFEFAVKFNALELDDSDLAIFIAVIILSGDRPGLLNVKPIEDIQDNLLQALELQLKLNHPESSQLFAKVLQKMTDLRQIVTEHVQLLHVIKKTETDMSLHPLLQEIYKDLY
# Experiment: Screening assay for PPAR-γ antagonists (GAL4-PPARγ luciferase reporter in CV-1 cells)
# Format: cell-based
# Details: CV-1 cells co-transfected with CMX-GAL-PPARγ and pTK-MH100x4-LUC; test compound alone or with agonist 200 nM BRL 49653; FIG. 1
# Experimental: Effector plasmid, reporter plasmid, and β-galactosidase control plasmid are co-transfected into CV-1 cells at a ratio of about 1:3:5, using a liposome-mediated method, employing N-{2-(2,3)-dioleoyloxy)propyl-N,N,N-trimethyl ammonium methyl sulfate} (i.e., DOTAP, Boehlinger Mannheim) according to the manufacturer's instructions in Dulbecco's modified Eagle's medium (DMEM) with 10% delipidated hormone-depleted fetal calf serum. After about 2-3 hours, the cells are washed with DMEM and agonist (200 nM BRL 49653) and/or an appropriate test compound (LY 171883; see FIG. 1) is added to the media. After 24-48 hours of incubation, the cells are rinsed with phosphate buffered saline (pH 7.2) and lysed. Aliquots are assayed for luciferase and β-galactosidase activity. Luciferase activity is normalized to optical density units of β-galactosidase per minute of incubation.
# Thus, CV-1 cells are co-transfected with CMX-GAL-PPARγ and pTK-MH100x4-LUC at a ratio of about 100 ng of receptor-encoding DNA per 10^5 cells. The usual amounts of DNA per 10^5 cells are 100 ng of CMX-GAL-PPARγ, 300 ng of pTK-MH100x4-LUC, and 500 ng of CMX-βGAL. Typically, transfections are performed in triplicate. The plates are then incubated for 2-3 hours at 37° C.
# The cells are washed with fresh medium. […]
# The data are expressed as relative light units (RLUs) per O.D. unit of β-galactosidase per minute. […]
smiles,measurement,value
CCCc1c(OCCCCc2nnn[nH]2)ccc(C(C)=O)c1O [LY 171883],relative reporter activity (functional activity at PPARγ),functional antagonist of PPARγ
